Results: patent publication US20260053932A1, “COMPOUNDS AND METHODS FOR THE TARGETED DEGRADATION OF ANDROGEN RECEPTOR AND ASSOCIATED METHODS OF USE” (Arvinas Operations, Inc., priority 2020, published 2026)
Like-named read-outs stand apart in the source and are kept apart here.

Tested on: androgen receptor (AR) in LNCaP and/or VCaP cells
Experiment: Androgen Receptor ELISA assay (AR degradation)
Type: cell-based
Outline: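 VCaP cells grown ≥3 days, then treated 5 h with compound in media containing 1 nM R1881 (10× stock). Cells lysed and AR quantified by sandwich ELISA (mouse AR detection Ab, HRP anti-mouse, TMB). DC50 and Dmax derived from AR degradation.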

[1] = degradation of AR ELISA in LNCaP and/or VCaP cells, Table 2C, read-out: DC50 Code*
[2] = LNCaP and/or VCaP cells, 5 hours incubation, media with R1881, read-out: DC50 Code* (degradation of AR ELISA)

| SMILES | DC50 [1] [nM] | also measured |
| --- | --- | --- |
| CC(C)N(CC1CCN(c2cnc(C(=O)N[C@H]3C(C)(C)[C@H](Oc4ccc(C#N)c(Cl)c4)C3(C)C)cn2)CC1)[C@H]1C[C@H](Oc2ccc3c(c2)C(=O)N(C2CCC(=O)NC2=O)C32CC2)C1 (some centres unmarked) [compound 141, N-((1r,3r)-3-(3-chloro-4-cyanophenoxy)-2,2,4,4-tetramethylcyclobutyl)-5-(4-((((1r,3r)-3-((2′-(2,6-dioxopiperidin-3-yl)-3′-oxospiro[cyclopropane-1,1′-isoindolin]-5′-yl)oxy)cyclobutyl) (isopropyl)amino)methyl)piperidin-1-yl)pyrazine-2-carboxamide] | > 100 |  |
| Cc1cc(O[C@H]2C(C)(C)[C@H](NC(=O)c3ccc(N4CCC(O[C@H]5C[C@H](Oc6ccc7c(c6)C(=O)N(C6CCC(=O)NC6=O)C7=O)C5)CC4)cc3)C2(C)C)cc(C)c1C#N (mixture of isomers) [compound 178, N-((1r,3r)-3-(4-cyano-3,5-dimethylphenoxy)-2,2,4,4-tetramethylcyclobutyl)-4-(4-((1r,3r)-3-((2-(2,6-dioxopiperidin-3-yl)-1,3-dioxoisoindolin-5-yl)oxy)cyclobutoxy)piperidin-1-yl)benzamide] | < 1 |  |
| Cc1cc(O[C@H]2C(C)(C)[C@H](NC(=O)c3cnc(N4CCC(CN(C(C)C)[C@H]5C[C@H](Oc6ccc7c(c6)C(=O)N(C6CCC(=O)N(COP(=O)(O)OCOC(=O)OC(C)C)C6=O)C7=O)C5)CC4)cn3)C2(C)C)cc(C)c1C#N (mixture of isomers) [compound 247, rac-((((3-(5-((1r,3r)-3-(((1-(5-(((1r,3r)-3-(4-cyano-3,5-dimethylphenoxy)-2,2,4,4-tetramethylcyclobutyl)carbamoyl)pyrazin-2-yl)piperidin-4-yl)methyl)(isopropyl)amino)cyclobutoxy)-1,3-dioxoisoindolin-2-yl)-2,6-dioxopiperidin-1-yl)methoxy)(hydroxy)phosphoryl)oxy)methyl isopropyl carbonate] |  | DC50 (degradation of AR ELISA in LNCaP and/or VCaP cells, read-out: DC50 Code*): > 100 nM |
| CC(C)N(CC1CCN(c2ncc(C(=O)N[C@H]3CC[C@H](Oc4ccc(C#N)c(Cl)c4)CC3)cn2)CC1)[C@H]1C[C@H](Oc2ccc3c(c2)C(=O)N(C2CCC(=O)NC2=O)C3)C1 (some centres unmarked) [Compound 60, N-((1r,4r)-4-(3-chloro-4-cyanophenoxy)cyclohexyl)-2-(4-((((1r,3r)-3-((2-(2,6-dioxopiperidin-3-yl)-3-oxoisoindolin-5-yl)oxy)cyclobutyl) (isopropyl)amino)methyl)piperidin-1-yl)pyrimidine-5-carboxamide] |  | DC50 [2]: < 1 nM |
| COc1cc(O[C@H]2C[C@H](N(CC3CCN(c4cnc(C(=O)N[C@H]5CC[C@H](Oc6ccc(C#N)c(Cl)c6)CC5)cn4)CC3)C(C)C)C2)cc2c1C(=O)N(C1CCC(=O)NC1=O)C2=O (some centres unmarked) [Compound 14, N-((1r,4r)-4-(3-chloro-4-cyanophenoxy)cyclohexyl)-5-(4-((((1r,3r)-3-((2-(2,6-dioxopiperidin-3-yl)-7-methoxy-1,3-dioxoisoindolin-5-yl)oxy)cyclobutyl) (isopropyl)amino)methyl)piperidin-1-yl)pyrazine-2-carboxamide] |  | DC50 [2]: < 1 nM |
| Cc1cc(O[C@H]2C(C)(C)[C@H](NC(=O)c3ccc(N4CCO[C@@H](CN5CCN(c6ccc7c(c6)C(=O)N(C6CCC(=O)NC6=O)C7=O)CC5)C4)cc3)C2(C)C)cc(C)c1C#N (stereo partly drawn) [compound 171, N-((1r,3S)-3-(4-cyano-3,5-dimethylphenoxy)-2,2,4,4-tetramethylcyclobutyl)-4-((2S)-2-((4-(2-(2,6-dioxopiperidin-3-yl)-1,3-dioxoisoindolin-5-yl)piperazin-1-yl)methyl)morpholino) benzamide] | < 1 |  |
| Cc1cc(O[C@H]2C(C)(C)[C@H](NC(=O)c3ccc(N4CCC(CN(C(C)C)[C@H]5C[C@H](Oc6ccc7c(c6)C(=O)N(C6CCC(=O)NC6=O)C7=O)C5)CC4)cn3)C2(C)C)cc(C)c1C#N (some centres unmarked) [compound 128, N-((1r,3r)-3-(4-cyano-3,5-dimethylphenoxy)-2,2,4,4-tetramethylcyclobutyl)-5-(4-((((1r,3r)-3-((2-(2,6-dioxopiperidin-3-yl)-1,3-dioxoisoindolin-5-yl)oxy)cyclobutyl) (isopropyl)amino)methyl)piperidin-1-yl)picolinamide] | 1 to 10 |  |
| COc1cc(O[C@H]2CC[C@H](NC(=O)c3cnc(N4CCC(CN(C(C)C)[C@H]5C[C@H](Oc6ccc7c(c6)C(=O)N(C6CCC(=O)NC6=O)C7=O)C5)CC4)cn3)C2)ccc1C#N (stereo partly drawn) [Compound 7, N-((1S,3S)-3-(4-cyano-3-methoxyphenoxy)cyclopentyl)-5-(4-((((1r,3S)-3-((2-(2,6-dioxopiperidin-3-yl)-1,3-dioxoisoindolin-5-yl)oxy)cyclobutyl) (isopropyl)amino)methyl)piperidin-1-yl)pyrazine-2-carboxamide] |  | DC50 [2]: > 100 nM |
| CC1(C)[C@H](NC(=O)c2ccc(N3CCC(CN4CCN(c5ccc6c(c5)C5(CC5)N(C5CCC(=O)NC5=O)C6=O)CC4)CC3)cc2)C(C)(C)[C@H]1Oc1ccc(C#N)c(Cl)c1 (some centres unmarked) [compound 139, N-((1r,3r)-3-(3-chloro-4-cyanophenoxy)-2,2,4,4-tetramethylcyclobutyl)-4-(4-((4-(2′-(2,6-dioxopiperidin-3-yl)-3′-oxospiro[cyclopropane-1,1′-isoindolin]-6′-yl)piperazin-1-yl)methyl)piperidin-1-yl)benzamide] | > 100 |  |
| COc1c(O[C@H]2C[C@H](N(CC3CCN(c4cnc(C(=O)N[C@H]5C(C)(C)[C@H](Oc6ccc(C#N)c(Cl)c6)C5(C)C)cn4)CC3)C(C)C)C2)ccc2c1CN(C1CCC(=O)NC1=O)C2=O (some centres unmarked) [Compound 227, N-((1r,3r)-3-(3-chloro-4-cyanophenoxy)-2,2,4,4-tetramethylcyclobutyl)-5-(4-((((1r,3r)-3-((2-(2,6-dioxopiperidin-3-yl)-4-methoxy-1-oxoisoindolin-5-yl)oxy)cyclobutyl)(isopropyl)amino)methyl)piperidin-1-yl)pyrazine-2-carboxamide] | < 1 |  |

The next lines start with results.

| DC50 [1] [nM] | SMILES | also measured |
| --- | --- | --- |
| < 1 | Cc1cc(O[C@H]2C(C)(C)[C@H](NC(=O)c3ccc(N4CCC(CN(C)[C@@H]5CC[C@@H](Oc6ccc7c(c6)C(=O)N(C6CCC(=O)NC6=O)C7=O)C5)CC4)cc3)C2(C)C)cc(C)c1C#N (stereo partly drawn) [compound 161, N-((1r,3R)-3-(4-cyano-3,5-dimethylphenoxy)-2,2,4,4-tetramethylcyclobutyl)-4-(4-((((1R,3R)-3-((2-(2,6-dioxopiperidin-3-yl)-1,3-dioxoisoindolin-5-yl)oxy)cyclopentyl) (methyl)amino)methyl)piperidin-1-yl)benzamide] |  |
| < 1 | Cc1cc(O[C@H]2C(C)(C)[C@H](NC(=O)c3cnc(N4CCC(CN(CCO)[C@H]5C[C@H](Oc6ccc7c(c6)C(=O)N(C6CCC(=O)NC6=O)C7=O)C5)CC4)cn3)C2(C)C)cc(C)c1C#N (mixture of isomers) [compound 229, rac-N-((1r,3r)-3-(4-cyano-3,5-dimethylphenoxy)-2,2,4,4-tetramethylcyclobutyl)-5-(4-((((1r,3r)-3-((2-(2,6-dioxopiperidin-3-yl)-1,3-dioxoisoindolin-5-yl)oxy)cyclobutyl)(2-hydroxyethyl)amino)methyl)piperidin-1-yl)pyrazine-2-carboxamide] |  |
| < 1 | COCCN(CC1CCN(c2ccc(C(=O)N[C@H]3C(C)(C)[C@H](Oc4ccc(C#N)c(OC)c4)C3(C)C)nn2)CC1)[C@H]1C[C@H](Oc2cc(OC)c3c(c2)C(=O)N(C2CCC(=O)NC2=O)C3=O)C1 (some centres unmarked) [compound 100, N-((1r,3r)-3-(4-cyano-3-methoxyphenoxy)-2,2,4,4-tetramethylcyclobutyl)-6-(4-((((1r,3r)-3-((2-(2,6-dioxopiperidin-3-yl)-7-methoxy-1,3-dioxoisoindolin-5-yl)oxy)cyclobutyl)(2-methoxyethyl)amino)methyl)piperidin-1-yl)pyridazine-3-carboxamide] |  |
| < 1 | Cc1cc(O[C@H]2C(C)(C)[C@H](NC(=O)c3cnc(N4CCC(CN(C)[C@H]5C[C@H](Oc6ccc7c(c6)C(=O)N(C6CCC(=O)NC6=O)C7=O)C5)CC4)nc3)C2(C)C)cc(C)c1C#N (some centres unmarked) [compound 86, N-((1r,3r)-3-(4-cyano-3,5-dimethylphenoxy)-2,2,4,4-tetramethylcyclobutyl)-2-(4-((((1r,3r)-3-((2-(2,6-dioxopiperidin-3-yl)-1,3-dioxoisoindolin-5-yl)oxy)cyclobutyl) (methyl)amino)methyl)piperidin-1-yl)pyrimidine-5-carboxamide] |  |
| < 1 | Cc1cc(O[C@H]2C(C)(C)[C@H](NC(=O)c3cnc(N4CCC(CN(CC(F)F)[C@H]5C[C@H](Oc6ccc7c(c6)C(=O)N(C6CCC(=O)NC6=O)C7)C5)CC4)nc3)C2(C)C)cc(C)c1C#N (some centres unmarked) [compound 109, N-((1r,3r)-3-(4-cyano-3,5-dimethylphenoxy)-2,2,4,4-tetramethylcyclobutyl)-2-(4-(((2,2-difluoroethyl)((1r,3r)-3-((2-(2,6-dioxopiperidin-3-yl)-3-oxoisoindolin-5-yl)oxy)cyclobutyl)amino)methyl)piperidin-1-yl)pyrimidine-5-carboxamide] |  |
| < 1 | COc1cc(O[C@H]2C(C)(C)[C@H](NC(=O)c3ccc(N4CCC(CN(CCN5CCOCC5)[C@H]5C[C@H](Oc6ccc7c(c6)C(=O)N(C6CCC(=O)NC6=O)C7=O)C5)CC4)cc3)C2(C)C)ccc1C#N (some centres unmarked) [compound 204, N-((1r,3r)-3-(4-cyano-3-methoxyphenoxy)-2,2,4,4-tetramethylcyclobutyl)-4-(4-((((1r,3r)-3-((2-(2,6-dioxopiperidin-3-yl)-1,3-dioxoisoindolin-5-yl)oxy)cyclobutyl)(2-morpholinoethyl)amino)methyl)piperidin-1-yl)benzamide] |  |
| < 1 | COc1cc(O[C@H]2C(C)(C)[C@H](NC(=O)c3ccc(N4CC5(CC(CN(C(C)C)[C@H]6C[C@H](Oc7ccc8c(c7)C(=O)N(C7CCC(=O)NC7=O)C8=O)C6)C5)C4)cc3)C2(C)C)ccc1C#N (mixture of isomers) [compound 216, rac-N-((1r,3r)-3-(4-cyano-3-methoxyphenoxy)-2,2,4,4-tetramethylcyclobutyl)-4-(6-((((1r,3r)-3-((2-(2,6-dioxopiperidin-3-yl)-1,3-dioxoisoindolin-5-yl)oxy)cyclobutyl) (isopropyl)amino)methyl)-2-azaspiro[3.3]heptan-2-yl)benzamide] |  |
